Data on 3 molecules can be found in patent publication US7164024B2, “Benzimidazolone derivatives” (Banyu Pharmaceutical Co., Ltd., priority 2001, dated 2007).

Assay [1] deals with T1, muscarinic acetylcholine receptors of human m2 (Homo sapiens, UniProt P08172).
T1 construct: purchased Receptor Biology, Inc; host or cells: CHO cells
T1 sequence (P08172 1-466): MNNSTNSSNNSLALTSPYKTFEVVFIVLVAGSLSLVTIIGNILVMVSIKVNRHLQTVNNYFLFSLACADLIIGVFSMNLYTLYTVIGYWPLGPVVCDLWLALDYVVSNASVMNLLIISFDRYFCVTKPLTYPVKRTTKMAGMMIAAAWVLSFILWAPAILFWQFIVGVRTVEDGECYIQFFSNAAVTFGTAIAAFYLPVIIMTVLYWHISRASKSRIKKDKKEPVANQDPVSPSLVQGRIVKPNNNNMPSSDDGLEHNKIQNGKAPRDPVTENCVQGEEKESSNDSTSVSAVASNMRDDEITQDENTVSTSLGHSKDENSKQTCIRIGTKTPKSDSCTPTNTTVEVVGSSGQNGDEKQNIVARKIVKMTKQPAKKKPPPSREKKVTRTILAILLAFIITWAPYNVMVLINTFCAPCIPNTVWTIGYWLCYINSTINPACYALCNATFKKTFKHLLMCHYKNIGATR
Kind of assay: Test on inhibition of binding to muscarinic receptors (m2). Conditions: human m2 expressed in CHO cells, 0.2 nM [3H]-N-methylscopolamine, 5000 nM GTPγS, 120 minutes at room temperature. The procedure:
(§1) The test was performed according to a modification of the method of Hargreaves, et al. (Br. J. Pharmacol. 107: 494–501, 1992). Namely, muscarinic acetylcholine receptors of human m1, m2, m3, m4 and m5 expressed in CHO cells (Receptor Biology, Inc.) were incubated with 0.2 nM [^3H]-N-methylscopolamine (82Ci/mmol, New England Nuclear, Inc.) and a test compound, either in 0.5 ml of 50 mM Tris-HCI, 10 mM MgCl2, 1 mM EDTA solution (pH 7.4) (human m1, m3 and m5 samples) or in 0.5 ml of 50 mM tris-HCl, 10 mM MgCl2, 1 mM EDTA, 5000 nM GTPγS solution (pH 7.4) (human m2 and m4 samples) for 120 minutes at room temperature (about 20–25° C.), followed by suction filtration over a glass filter (UniFilter plate-GF/C; Packard). Then the filter was washed four times with 1 ml of ice-cooled Tris-HCI buffer and dried at 50° C. for an hour. After adding a scintillator (Microscinti 0; Packard), the radioactivity of [^3H]-N-methylscopolamine binding to the filter was counted with a microplate scintillation counter (TopCount; Packard). Non-specific receptor binding of [^3H]-N-methylscopolamine was measured by adding 1 μM N-methylscopolamine. According to the method of Cheng and Prusoff (Biochem. Pharmacol. 22: 3099–3108, 1973), the binding affinity of each sample compound of the present invention for muscarinic receptors is expressed by inhibition constant (Ki) which is calculated from the concentration (IC50) of the sample compound which achieves 50% inhibition of binding of [^3H]-N-methylscopolamine, the labeled ligand. Smaller inhibition constant (Ki) represents stronger tendency to bind to muscarinic receptors, i.e., a higher binding inhibitory effect.

In assay [2] the target is T2, muscarinic acetylcholine receptors of human m4 (Homo sapiens, UniProt P08173).
T2 construct: purchased Receptor Biology, Inc; host or cells: CHO cells
T2 sequence (P08173 1-479): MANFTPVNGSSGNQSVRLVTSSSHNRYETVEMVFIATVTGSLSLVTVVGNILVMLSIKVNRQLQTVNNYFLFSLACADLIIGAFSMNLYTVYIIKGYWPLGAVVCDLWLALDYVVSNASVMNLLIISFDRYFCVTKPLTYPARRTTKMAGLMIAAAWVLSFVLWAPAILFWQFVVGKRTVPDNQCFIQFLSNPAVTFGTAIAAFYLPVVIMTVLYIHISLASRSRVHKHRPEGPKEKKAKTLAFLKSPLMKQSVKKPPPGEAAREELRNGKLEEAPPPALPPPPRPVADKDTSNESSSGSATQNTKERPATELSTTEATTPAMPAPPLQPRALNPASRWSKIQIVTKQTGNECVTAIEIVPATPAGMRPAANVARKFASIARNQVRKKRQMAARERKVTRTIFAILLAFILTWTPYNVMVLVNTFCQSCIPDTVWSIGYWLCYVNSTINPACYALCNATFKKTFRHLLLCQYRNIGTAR
Kind of assay: Test on inhibition of binding to muscarinic receptors (m4). The conditions noted are these: for Ki: human m4 expressed in CHO cells, 0.2 nM [3H]-N-methylscopolamine, 5000 nM GTPγS, 120 minutes at room temperature; for Selectivity (times) m1/m4: ratio of Ki m1 to Ki m4; for Selectivity (times) m2/m4: ratio of Ki m2 to Ki m4; for Selectivity (times) m3/m4: ratio of Ki m3 to Ki m4; for Selectivity (times) m5/m4: ratio of Ki m5 to Ki m4. The procedure: as §1

Assay [3] addresses T3, muscarinic acetylcholine receptors of human m5 (Homo sapiens, UniProt P08912).
T3 construct: purchased Receptor Biology, Inc; host or cells: CHO cells
T3 sequence (P08912 1-532): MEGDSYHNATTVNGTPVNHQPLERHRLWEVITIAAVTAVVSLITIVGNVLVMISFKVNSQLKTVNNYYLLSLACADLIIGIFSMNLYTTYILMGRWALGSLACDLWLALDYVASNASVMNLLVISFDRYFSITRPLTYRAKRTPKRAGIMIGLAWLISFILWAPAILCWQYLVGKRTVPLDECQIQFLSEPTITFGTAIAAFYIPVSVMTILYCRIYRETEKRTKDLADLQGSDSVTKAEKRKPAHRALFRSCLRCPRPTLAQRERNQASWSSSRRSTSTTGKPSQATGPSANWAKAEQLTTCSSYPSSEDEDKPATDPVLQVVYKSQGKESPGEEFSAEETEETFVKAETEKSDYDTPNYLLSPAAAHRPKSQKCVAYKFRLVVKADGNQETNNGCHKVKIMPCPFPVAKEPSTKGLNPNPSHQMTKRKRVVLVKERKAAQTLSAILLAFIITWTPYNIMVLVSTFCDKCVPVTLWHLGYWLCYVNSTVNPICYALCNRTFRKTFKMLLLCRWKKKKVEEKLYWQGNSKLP
Kind of assay: Test on inhibition of binding to muscarinic receptors (m5). Conditions: human m5 expressed in CHO cells, 0.2 nM [3H]-N-methylscopolamine, 120 minutes at room temperature. The procedure: as §1

For assay [4], the target named is T4, muscarinic acetylcholine receptors of human m3 (Homo sapiens, UniProt P20309).
T4 construct: purchased Receptor Biology, Inc; host or cells: CHO cells
In words: Test on inhibition of binding to muscarinic receptors (m3). The conditions noted are these: human m3 expressed in CHO cells, 0.2 nM [3H]-N-methylscopolamine, 120 minutes at room temperature. As to the method:
as §1

For assay [5], the target named is T5, muscarinic acetylcholine receptors of human m1 (Homo sapiens, UniProt P11229).
T5 construct: purchased Receptor Biology, Inc; host or cells: CHO cells
T5 sequence (P11229 1-460): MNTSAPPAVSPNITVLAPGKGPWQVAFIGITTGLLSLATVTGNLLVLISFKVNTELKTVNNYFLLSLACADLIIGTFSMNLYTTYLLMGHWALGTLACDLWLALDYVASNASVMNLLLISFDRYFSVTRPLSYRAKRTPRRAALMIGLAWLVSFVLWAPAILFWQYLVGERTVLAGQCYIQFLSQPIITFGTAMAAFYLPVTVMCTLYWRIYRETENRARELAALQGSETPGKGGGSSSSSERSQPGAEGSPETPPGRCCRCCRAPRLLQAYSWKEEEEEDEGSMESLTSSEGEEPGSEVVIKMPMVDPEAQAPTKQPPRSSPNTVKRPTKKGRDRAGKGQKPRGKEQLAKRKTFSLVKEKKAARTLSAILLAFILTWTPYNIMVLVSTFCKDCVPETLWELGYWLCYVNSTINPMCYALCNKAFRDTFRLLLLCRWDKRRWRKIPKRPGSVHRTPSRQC
Kind of assay: Test on inhibition of binding to muscarinic receptors (m1). The conditions noted are these: human m1 expressed in CHO cells, 0.2 nM [3H]-N-methylscopolamine, 120 minutes at room temperature. The procedure:
as §1

Structures are written as SMILES.

T4 sequence (P20309 whole entry): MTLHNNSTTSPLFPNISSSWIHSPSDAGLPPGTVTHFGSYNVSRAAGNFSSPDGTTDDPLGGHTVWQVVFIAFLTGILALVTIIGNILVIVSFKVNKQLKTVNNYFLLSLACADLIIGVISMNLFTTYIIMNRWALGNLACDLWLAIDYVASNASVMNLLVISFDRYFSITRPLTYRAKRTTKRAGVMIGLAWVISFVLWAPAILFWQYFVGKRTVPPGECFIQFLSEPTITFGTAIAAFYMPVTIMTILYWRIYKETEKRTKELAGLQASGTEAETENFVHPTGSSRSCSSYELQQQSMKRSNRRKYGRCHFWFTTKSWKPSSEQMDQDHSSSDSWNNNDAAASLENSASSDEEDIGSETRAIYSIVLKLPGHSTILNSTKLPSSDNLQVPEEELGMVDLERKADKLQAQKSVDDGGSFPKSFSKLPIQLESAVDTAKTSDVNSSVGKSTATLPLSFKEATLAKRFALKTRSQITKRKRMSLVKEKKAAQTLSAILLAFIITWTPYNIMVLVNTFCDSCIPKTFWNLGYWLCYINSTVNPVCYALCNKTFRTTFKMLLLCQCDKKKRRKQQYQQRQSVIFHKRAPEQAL

Turning to `O=C(c1cnccn1)N1CCC(CCN2CCC(n3c(=O)[nH]c4ccccc43)CC2)CC1` [Example 4, 1-[1-[2-[1-(Pyrazinylcarbonyl)piperidin-4-yl]ethyl]piperidin-4-yl]-1,3-dihydro-2H-benzimidazol-2-one], the affinity in assay [1] corresponds to a Ki of 73 nM. For the same molecule, in assay [2], the affinity, expressed as Ki, was 4.5 nM; the “Selectivity (times) m1/m4” value was found to be 6.1 times; the “Selectivity (times) m2/m4” value is given as 16 times; the “Selectivity (times) m3/m4” value amounted to 1600 times. Moreover, the “Selectivity (times) m5/m4” value in assay [2] amounted to 57 times. The molecule also returned a Ki in assay [3] of 260 nM. The Ki in assay [4] worked out at 7400 nM. In assay [5], this molecule had a Ki of 28 nM.

The molecule `O=C(c1cccnc1)N1CCCC(CCN2CCC(n3c(=O)[nH]c4ccccc43)CC2)CC1` (single isomer, unassigned) [Example 9, (S*)-1-[1-[2-[1-(3-pyridylcarbonyl)perhydroazepin-4-yl]ethyl]piperidin-4-yl]-1,3-dihydro-2H-benzimidazol-2-one] gave a Ki in assay [1] of 31 nM. In addition, in assay [2], the Ki amounted to 1.7 nM, the “Selectivity (times) m1/m4” value was 15 times, the “Selectivity (times) m2/m4” value stood at 19 times and the “Selectivity (times) m3/m4” value is reported as 1000 times. Also, the “Selectivity (times) m5/m4” value in assay [2] stood at 270 times. The molecule also came in with a Ki in assay [3] of 450 nM. For the same molecule, the Ki in assay [4] came to 1700 nM. This molecule came in with an inhibitory constant (Ki) in assay [5] of 25 nM.

On to `CC(CN1CCC(n2c(=O)[nH]c3ccccc32)CC1)C1CCN(C(=O)c2cccnc2)CC1` (stereo not drawn) [Example 12, 1-[1-[2-[1-(3-Pyridylcarbonyl)piperidin-4-yl]propyl]piperidin-4-yl]-1,3-dihydro-2H-benzimidazol-2-one], for which the Ki in assay [1] worked out at 24 nM. In assay [2], the inhibition constant Ki is 2.3 nM, the “Selectivity (times) m1/m4” value is given as 9.7 times, the “Selectivity (times) m2/m4” value is 11 times and the “Selectivity (times) m3/m4” value is 2000 times. Besides, in assay [2], the “Selectivity (times) m5/m4” value is 99 times. Besides, in assay [3], the Ki stood at 220 nM. Moreover, the Ki in assay [4] is 4500 nM. Besides, the affinity in assay [5], expressed as Ki, was 22 nM.

One may read the Ki as the equilibrium dissociation constant of an inhibitor or competing ligand from its target.
